Laboratory results as given in patent US6340764B1, “Reference compound for use in the analysis of levosimendan batches” (Orion Corporation, priority 1998, dated 2002).

System: bacterial mutagenity test (Ames test)
Experiment: bacterial mutagenity test (Ames test)
Assay type: cell-based

`CC1CC(=O)OC1(N=[N+]=[N-])c1ccc(NN=C(C#N)C#N)cc1` (centres unmarked) [Compound (I), [[4-(2-azido-3-methyl-5-oxotetrahydrofuran-2-yl)phenyl]hydrazono]propanedinitrile] was tested, and the “genotoxic / mutagenic properties in the bacterial mutagenity test (Ames test)” value was “potent mutagen”.

`CC1CC(=O)NN=C1c1ccc(NN=C(C#N)C#N)cc1` (single isomer, unassigned; (-)) [levosimendan, (−)-enantiomer of [[4-(1,4,5,6-tetrahydro-4-methyl-6-oxo-3-pyridazinyl)phenyl]hydrazono]propanedinitrile] was tested, and the “genotoxic / mutagenic properties in the bacterial mutagenity test (Ames test)” value was “show potential genotoxic properties occasionally”.
